Experiments:
wheat = assay: Test B pre/postemergence wheat; format: in vivo, Triticum aestivum
Excerpt: (§1) Seeds of bedstraw (Galium aparine), blackgrass (Alopecurus myosuroides), surinam grass (Brachiaria decumbens), cocklebur (Xanthium strumarium), corn (Zea mays), crabgrass (Digitaria sanguinalis), giant foxtail (Setaria faberii), morningglory (Ipomoea hederacea), pigweed (Amaranthus retroflexus), rape (Brassica napus), soybean (Glycine max), sugar beet (Beta vulgaris), velvetleaf (Abutilon theophrasti), wheat (Triticum aestivum), wild oat (Avena fatua) and purple nutsedge (Cyperus rotundus) tubers were planted and treated preemnergence with test chemicals formulated in a non-phytotoxic solvent mixture which included a surfactant.
(§2) At the same time, these crop and weed species were also treated with postemergence applications of test chemicals formulated in the same manner. Plants ranged in height from 2 to 18 cm (1- to 4-leaf stage) for postemergence treatments. Plant species in the flood test consisted of rice (Oryza sativa), smallflower flatsedge (Cyperus difformis), duck salad (Heteranthera limosa) and bamyardgrass (Echinochloa crus-galli) grown to the 2-leaf stage for testing. Treated plants and controls were maintained in a greenhouse for twelve to sixteen days, after which all species were compared to controls and visually evaluated. Plant response ratings, summarized in Table B, are based on a scale of 0 to 10 where 0 is no effect and 10 is complete control. A dash (−) response means no test result.

morningglory = assay: Test B pre/postemergence morningglory; format: in vivo, Ipomoea hederacea
Excerpt: as §1, §2

purple nutsedge = assay: Test B pre/postemergence purple nutsedge; format: in vivo, Cyperus rotundus
Excerpt: as §1, §2

velvetleaf = assay: Test B pre/postemergence velvetleaf; format: in vivo, Abutilon theophrasti
Excerpt: as §1, §2

soybean = assay: Test B pre/postemergence soybean; format: in vivo, Glycine max
Excerpt: as §1, §2

rape = assay: Test B pre/postemergence rape; format: in vivo, Brassica napus
Excerpt: as §1, §2

cocklebur = assay: Test B pre/postemergence cocklebur; format: in vivo, Xanthium strumarium
Excerpt: as §1, §2

pigweed = assay: Test B pre/postemergence pigweed; format: in vivo, Amaranthus retroflexus
Excerpt: as §1, §2

crabgrass = assay: Test B pre/postemergence crabgrass; format: in vivo, Digitaria sanguinalis
Excerpt: as §1, §2

blackgrass = assay: Test B pre/postemergence blackgrass; format: in vivo, Alopecurus myosuroides
Excerpt: as §1, §2

wild oat = assay: Test B pre/postemergence wild oat; format: in vivo, Avena fatua
Excerpt: as §1, §2

giant foxtail = assay: Test B pre/postemergence giant foxtail; format: in vivo, Setaria faberii
Excerpt: as §1, §2

bedstraw = assay: Test B pre/postemergence bedstraw; format: in vivo, Galium aparine
Excerpt: as §1, §2

surinam grass = assay: Test B pre/postemergence surinam grass; format: in vivo, Brachiaria decumbens
Excerpt: as §1, §2

sugar beet = assay: Test B pre/postemergence sugar beet; format: in vivo, Beta vulgaris
Excerpt: as §1, §2

corn = assay: Test B pre/postemergence corn; format: in vivo, Zea mays
Excerpt: as §1, §2

[1] = Postemergence, Rate 62 g/ha, scale 0 to 10, 0 is no effect, 10 is complete control
[2] = Postemergence, Rate 125 g/ha, scale of 0 to 10 where 0 is no effect and 10 is complete control
[3] = Preemergence, Rate 125 g/ha, scale of 0 to 10 where 0 is no effect and 10 is complete control
[4] = Preemergence, Rate 250 g/ha, scale 0 (no effect) to 10 (complete control)
[5] = Rate 62 g/ha, Preemergence, scale 0 to 10
[6] = Rate 500 g/ha, Postemergence, scale 0 to 10, 0 is no effect, 10 is complete control
[7] = Rate 250 g/ha, Postemergence, scale 0 to 10, 0 is no effect, 10 is complete control
[8] = Rate 500 g/ha, Preemergence, scale 0 to 10 (0 no effect, 10 complete control)
[9] = Preemergence, Rate 62 g/ha, scale of 0 to 10 where 0 is no effect and 10 is complete control
[10] = Preemergence, Rate 250 g/ha, scale 0 to 10 (0 no effect, 10 complete control)
[11] = Preemergence, Rate 500 g/ha, scale of 0 to 10 where 0 is no effect and 10 is complete control

CC(C)N(C(=O)n1oc(=O)n(CC(F)F)c1=O)c1ccccc1 [Compound 746]
Plant response rating, Wheat (wheat; [1]): 0
Wheat plant response rating (wheat; [2]): 4
Plant response rating, Wheat (wheat; [3]): 7
Wheat plant response rating (wheat; [4]): 8
Wheat plant response rating (wheat; [5]): 6
Wheat plant response rating (wheat; [6]): 6
Plant response rating, Morningglory (morningglory; [1]): 4
Morningglory plant response rating (morningglory; [2]): 8
Plant response rating, Morningglory (morningglory; [3]): 4
Morningglory plant response rating (morningglory; [4]): 6
Morningglory plant response rating (morningglory; [5]): 0
Morningglory plant response rating (morningglory; [7]): 10
Morningglory plant response rating (morningglory; [6]): 10
Morningglory plant response rating (morningglory; [8]): 8
Plant response rating, Nutsedge (purple nutsedge; [1]): 0
Nutsedge plant response rating (purple nutsedge; [2]): 0
Plant response rating, Nutsedge (purple nutsedge; [3]): 3
Nutsedge plant response rating (purple nutsedge; [5]): 0
Nutsedge plant response rating (purple nutsedge; [7]): 2
Nutsedge plant response rating (purple nutsedge; [6]): 4
Nutsedge plant response rating (purple nutsedge; [8]): 5
Plant response rating, Velvetleaf (velvetleaf; [1]): 2
Velvetleaf plant response rating (velvetleaf; [2]): 6
Plant response rating, Velvetleaf (velvetleaf; [3]): 6
Velvetleaf plant response rating (velvetleaf; [4]): 7
Velvetleaf plant response rating (velvetleaf; [5]): 4
Velvetleaf plant response rating (velvetleaf; [7]): 6
Velvetleaf plant response rating (velvetleaf; [6]): 7
Velvetleaf plant response rating (velvetleaf; [8]): 8
Plant response rating, Soybean (soybean; [1]): 2
Soybean plant response rating (soybean; [2]): 3
Plant response rating, Soybean (soybean; [3]): 0
Soybean plant response rating (soybean; [4]): 5
Soybean plant response rating (soybean; [5]): 0
Soybean plant response rating (soybean; [7]): 4
Soybean plant response rating (soybean; [6]): 6
Soybean plant response rating (soybean; [8]): 5
Plant response rating, Rape (rape; [1]): 4
Rape plant response rating (rape; [2]): 4
Plant response rating, Rape (rape; [3]): 9
Rape plant response rating (rape; [4]): 9
Rape plant response rating (rape; [5]): 2
Rape plant response rating (rape; [7]): 7
Rape plant response rating (rape; [6]): 7
Plant response rating, Cocklebur (cocklebur; [1]): 0
Cocklebur plant response rating (cocklebur; [2]): 2
Plant response rating, Cocklebur (cocklebur; [3]): 0
Cocklebur plant response rating (cocklebur; [4]): 0
Cocklebur plant response rating (cocklebur; [7]): 2
Cocklebur plant response rating (cocklebur; [6]): 4
Cocklebur plant response rating (cocklebur; [8]): 4
Plant response rating, Redroot pigweed (pigweed; [1]): 6
Redroot pigweed plant response rating (pigweed; [2]): 5
Plant response rating, Redroot pigweed (pigweed; [3]): 10
Redroot pigweed plant response rating (pigweed; [4]): 10
Redroot pigweed plant response rating (pigweed; [5]): 10
Redroot pigweed plant response rating (pigweed; [7]): 8
Redroot pigweed plant response rating (pigweed; [6]): 9
Plant response rating, Crabgrass (crabgrass; [1]): 7
Crabgrass plant response rating (crabgrass; [2]): 9
Plant response rating, Crabgrass (crabgrass; [3]): 10
Crabgrass plant response rating (crabgrass; [4]): 10
Crabgrass plant response rating (crabgrass; [5]): 9
Crabgrass plant response rating (crabgrass; [7]): 9
Crabgrass plant response rating (crabgrass; [6]): 10
Crabgrass plant response rating (crabgrass; [8]): 10
Plant response rating, Blackgrass (blackgrass; [1]): 5
Blackgrass plant response rating (blackgrass; [2]): 7
Plant response rating, Blackgrass (blackgrass; [3]): 9
Blackgrass plant response rating (blackgrass; [4]): 10
Blackgrass plant response rating (blackgrass; [5]): 9
Blackgrass plant response rating (blackgrass; [7]): 8
Blackgrass plant response rating (blackgrass; [6]): 8
Plant response rating, Wild oats (wild oat; [1]): 0
Wild oats plant response rating (wild oat; [2]): 2
Plant response rating, Wild oats (wild oat; [3]): 10
Wild oats plant response rating (wild oat; [4]): 10
Wild oats plant response rating (wild oat; [5]): 7
Wild oats plant response rating (wild oat; [7]): 6
Wild oats plant response rating (wild oat; [6]): 7
Plant response rating, Giant foxtail (giant foxtail; [1]): 6
Giant foxtail plant response rating (giant foxtail; [2]): 8
Plant response rating, Giant foxtail (giant foxtail; [3]): 10
Giant foxtail plant response rating (giant foxtail; [4]): 10
Giant foxtail plant response rating (giant foxtail; [5]): 10
Giant foxtail plant response rating (giant foxtail; [7]): 9
Giant foxtail plant response rating (giant foxtail; [6]): 9
Giant foxtail plant response rating (giant foxtail; [8]): 10
Bedstraw plant response rating (bedstraw; [2]): 7
Bedstraw plant response rating (bedstraw; [5]): 8
Bedstraw plant response rating (bedstraw; [7]): 8
Bedstraw plant response rating (bedstraw; [6]): 9
Plant response rating, B. signalgrass (surinam grass; [1]): 3
B. signalgrass plant response rating (surinam grass; [2]): 4
B. signalgrass plant response rating (surinam grass; [9]): 7
Plant response rating, B. signalgrass (surinam grass; [3]): 9
B. signalgrass plant response rating (surinam grass; [4]): 9
B. signalgrass plant response rating (surinam grass; [7]): 6
B. signalgrass plant response rating (surinam grass; [6]): 8
Plant response rating, Sugarbeets (sugar beet; [1]): 0
Sugarbeets plant response rating (sugar beet; [2]): 0
Plant response rating, Sugarbeets (sugar beet; [3]): 7
Sugarbeets plant response rating (sugar beet; [4]): 7
Sugarbeets plant response rating (sugar beet; [5]): 5
Sugarbeets plant response rating (sugar beet; [7]): 4
Sugarbeets plant response rating (sugar beet; [6]): 4
Plant response rating, Corn (corn; [1]): 0
Corn plant response rating (corn; [2]): 0
Plant response rating, Corn (corn; [3]): 3
Corn plant response rating (corn; [4]): 3
Corn plant response rating (corn; [5]): 0
Corn plant response rating (corn; [7]): 4
Corn plant response rating (corn; [6]): 5
Corn plant response rating (corn; [8]): 4

CCn1ncc(Cn2c(=O)on(C(=O)N(c3ccc(Cl)cc3)C(C)C)c2=O)c1Cl [Compound 684]
Wheat plant response rating (wheat; [9]): 0
Plant response rating, Wheat (wheat; [3]): 0
Morningglory plant response rating (morningglory; [9]): 0
Plant response rating, Morningglory (morningglory; [3]): 0
Nutsedge plant response rating (purple nutsedge; [9]): 0
Plant response rating, Nutsedge (purple nutsedge; [3]): 0
Velvetleaf plant response rating (velvetleaf; [9]): 0
Plant response rating, Velvetleaf (velvetleaf; [3]): 0
Soybean plant response rating (soybean; [9]): 0
Plant response rating, Soybean (soybean; [3]): 0
Rape plant response rating (rape; [9]): 0
Plant response rating, Rape (rape; [3]): 0
Cocklebur plant response rating (cocklebur; [9]): 0
Plant response rating, Cocklebur (cocklebur; [3]): 0
Plant response rating, Cocklebur (cocklebur; [10]): 0
Plant response rating, Cocklebur (cocklebur; [11]): 0
Redroot pigweed plant response rating (pigweed; [9]): 0
Plant response rating, Redroot pigweed (pigweed; [3]): 0
Crabgrass plant response rating (crabgrass; [9]): 3
Plant response rating, Crabgrass (crabgrass; [3]): 7
Plant response rating, Crabgrass (crabgrass; [10]): 9
Blackgrass plant response rating (blackgrass; [9]): 1
Plant response rating, Blackgrass (blackgrass; [3]): 3
Plant response rating, Blackgrass (blackgrass; [10]): 4
Plant response rating, Blackgrass (blackgrass; [11]): 7
Wild oats plant response rating (wild oat; [9]): 0
Plant response rating, Wild oats (wild oat; [3]): 0
Giant foxtail plant response rating (giant foxtail; [9]): 7
Plant response rating, Giant foxtail (giant foxtail; [3]): 9
Bedstraw plant response rating (bedstraw; [9]): 0
Plant response rating, Bedstraw (bedstraw; [3]): 0
Plant response rating, Bedstraw (bedstraw; [10]): 0
Plant response rating, Bedstraw (bedstraw; [11]): 0
B. signalgrass plant response rating (surinam grass; [9]): 0
Plant response rating, B. signalgrass (surinam grass; [3]): 0
Plant response rating, B. signalgrass (surinam grass; [10]): 4
Plant response rating, B. signalgrass (surinam grass; [11]): 5
Sugarbeets plant response rating (sugar beet; [9]): 0
Plant response rating, Sugarbeets (sugar beet; [3]): 0
Corn plant response rating (corn; [9]): 0
Plant response rating, Corn (corn; [3]): 0
Plant response rating, Corn (corn; [10]): 0

Reference: US6737383B1, “Herbicidal oxadiazolidines” (priority 1999, dated 2004)
